In patent publication US20250281479A1, “TREATMENT OF CAVERNOUS ANGIOMAS WITH A 4-SUBSTITUTED PIPERIDINE DERIVATIVE” (Neurelis, Inc., priority 2024, published 2025):
pEC50, pIC50: −log10 of the molar value.

Key:
human serum albumin = human serum albumin (Homo sapiens, UniProt P02768); assay: binding to human serum albumin; assay type: in vitro ADME
Experimental: (§1) Exposure to NRL-2017 was similar or greater (up to 5-fold) than that to NRL-1049 in rats when dosed once a day (QD). In monkeys, exposure to NRL-2017 was also greater (up to 33-fold) than that to NRL-1049. When rats were dosed twice a day (BID) for 14 days, there was a decrease in formation of NRL-2017 with exposure to NRL-2017 lower than that of NRL-1049 (ratio as low as 0.06). […] NRL-1049 bound to human serum albumin and human alpha1-acid glycoprotein. […] There was also inhibition of P-glycoprotein (P-gp) (only CACO-2 cells), organic anion transporting polypeptides (OATP) OATP1B1, OATP1B3 and OAT3 (IC50, >100 μM), but no effect on P-gp (MDCK2 cells), breast cancer resistance protein (BCRP), bile salt export pump (BSEP), or MATE2-K. NRL-1049 is a substrate for P-gp, not BCRP. […] This conclusion will be revisited when human pharmacokinetic (PK) data becomes available.

[1] = first-in-human single ascending dose and food-effect study, safety and tolerability; assay type: in vivo
Excerpt: This was a first-in-human, single center, randomized, double-blind, placebo-controlled, single ascending dose (SAD) study, including a food-effect assessment, in healthy male and female subjects. Up to 44 subjects were included in the study.
The study consisted of 4 sequential cohorts of 8 subjects each (6 active and 2 placebo), randomly assigned to receive a single oral dose of NRL-1049 or matching-placebo under fasting state on Day 1 (See Table 2). In each cohort, a sentinel group of 2 subjects (1 active and 1 placebo) were dosed at least 24 hours prior to enrolling the remaining subjects of the cohort, contingent on the safety profile observed during sentinel dosing, as defined by medical judgment.
Subjects were admitted to the clinical research unit (CRU) on Day −1. On Day 1, following an overnight fast, subjects received a single oral dose of their assigned study treatment. Safety, PK, and exploratory biomarker assessments were performed prior to dosing and at assigned time points during study confinement. Subjects were permitted to leave the CRU following the completion of the 48-hour PK postdose sampling and safety assessments. A safety follow-up phone call was performed on Day 8 (±1 day).
Each dose cohort was separated by at least 7 days to review safety by the Data Safety Monitoring Board (DSMB) prior to a decision to proceed with the next higher dose cohort or stop the study.
Furthermore, a food-effect assessment was integrated into Cohort 3, in which a single oral 150 mg dose of NRL-1049 or placebo was administered to 12 subjects (10 active and 2 placebo) under fed state in Period 2 (refer to schedule of food-effect Cohort 3 in Table 3). After completion of Period 1 and a washout period of at least 14 days, Cohort 3 subjects repeated the screening procedures to ensure they still met the inclusion and exclusion criteria prior to readmission to the CRU for Period 2. Subjects dosed in Period 1 and who returned for Period 2 (a maximum of 6 active and 2 placebo) were administered the same single oral dose in Period 2 under fed state. In addition, at least 4 new subjects were enrolled in Period 2 only, in order to dose a total of 12 subjects (10 active and 2 placebo), in a 1:1 ratio of male to female. If a subject dosed in Period 1 was unable to return for Period 2, a new subject was enrolled to ensure dosing a total of 12 subjects in Period 2. Newly enrolled subjects only received the study drug in the fed state, and as such were not required to undergo Period 1 activities. There was no sentinel approach in Period 2.
The safety, PK, and exploratory biomarker assessments were performed prior to dosing and at assigned time points during study confinement. For the food-effect cohort, exploratory biomarker samples were collected in both periods. Subjects were discharged from the CRU following the completion of the 48-hour PK postdose sampling and safety assessments. A safety follow-up phone call was performed on Day 23 (±1 day).

OCT1 = OCT1 (Homo sapiens, UniProt O15245); assay: transporter inhibition; assay type: in vitro ADME; settings: one range printed for OAT1, OCT1, OCT2 and MATE1 together
Experimental: as §1

OATP1B1 = OATP1B1 (Homo sapiens, UniProt Q9Y6L6); assay: transporter inhibition; assay type: in vitro ADME
Experimental: as §1

[2] = molecular target: breast cancer resistance protein (BCRP) (Homo sapiens, UniProt Q9UNQ0); assay: transporter inhibition; assay type: in vitro ADME
Experimental: as §1

OCT2 = OCT2 (Homo sapiens, UniProt O15244); assay: transporter inhibition; assay type: in vitro ADME; settings: one range printed for OAT1, OCT1, OCT2 and MATE1 together
Experimental: as §1

[3] = molecular target: bile salt export pump (BSEP) (Homo sapiens, UniProt O95342); assay: transporter inhibition; assay type: in vitro ADME
Experimental: as §1

OATP1B3 = OATP1B3 (Homo sapiens, UniProt Q9NPD5); assay: transporter inhibition; assay type: in vitro ADME
Experimental: as §1

MATE1 = MATE1 (Homo sapiens, UniProt Q96FL8); assay: transporter inhibition; assay type: in vitro ADME; settings: one range printed for OAT1, OCT1, OCT2 and MATE1 together
Experimental: as §1

[4] = molecular target: T1, P-glycoprotein (P-gp) (only CACO-2 cells) (Homo sapiens, UniProt P08183); assay: transporter inhibition; assay type: in vitro ADME
T1 construct: endogenous in cells; host or cells: CACO-2 cells
Experimental: as §1

OAT3 = OAT3 (Homo sapiens, UniProt Q8TCC7); assay: transporter inhibition; assay type: in vitro ADME
Experimental: as §1

P-gp (MDCK2 cells) = molecular target: T2, P-gp (MDCK2 cells) (Homo sapiens, UniProt P08183); assay: transporter inhibition; assay type: in vitro ADME
T2 construct: host or cells: MDCK2 cells
Experimental: as §1

OAT1 = OAT1 (Homo sapiens, UniProt Q4U2R8); assay: transporter inhibition; assay type: in vitro ADME; settings: one range printed for OAT1, OCT1, OCT2 and MATE1 together
Experimental: as §1

CYP3A4 = assay: CYP induction in hepatocyte culture; assay type: in vitro ADME; settings: in at least one hepatocyte culture
Experimental: as §1

CYP1A2 = assay: CYP induction in hepatocyte culture; assay type: in vitro ADME; settings: in at least one hepatocyte culture
Experimental: as §1

[5] = test system: human alpha1-acid glycoprotein; assay: binding to human alpha1-acid glycoprotein; assay type: in vitro ADME
Experimental: as §1

Chain of bile salt export pump (BSEP) (O95342 whole entry): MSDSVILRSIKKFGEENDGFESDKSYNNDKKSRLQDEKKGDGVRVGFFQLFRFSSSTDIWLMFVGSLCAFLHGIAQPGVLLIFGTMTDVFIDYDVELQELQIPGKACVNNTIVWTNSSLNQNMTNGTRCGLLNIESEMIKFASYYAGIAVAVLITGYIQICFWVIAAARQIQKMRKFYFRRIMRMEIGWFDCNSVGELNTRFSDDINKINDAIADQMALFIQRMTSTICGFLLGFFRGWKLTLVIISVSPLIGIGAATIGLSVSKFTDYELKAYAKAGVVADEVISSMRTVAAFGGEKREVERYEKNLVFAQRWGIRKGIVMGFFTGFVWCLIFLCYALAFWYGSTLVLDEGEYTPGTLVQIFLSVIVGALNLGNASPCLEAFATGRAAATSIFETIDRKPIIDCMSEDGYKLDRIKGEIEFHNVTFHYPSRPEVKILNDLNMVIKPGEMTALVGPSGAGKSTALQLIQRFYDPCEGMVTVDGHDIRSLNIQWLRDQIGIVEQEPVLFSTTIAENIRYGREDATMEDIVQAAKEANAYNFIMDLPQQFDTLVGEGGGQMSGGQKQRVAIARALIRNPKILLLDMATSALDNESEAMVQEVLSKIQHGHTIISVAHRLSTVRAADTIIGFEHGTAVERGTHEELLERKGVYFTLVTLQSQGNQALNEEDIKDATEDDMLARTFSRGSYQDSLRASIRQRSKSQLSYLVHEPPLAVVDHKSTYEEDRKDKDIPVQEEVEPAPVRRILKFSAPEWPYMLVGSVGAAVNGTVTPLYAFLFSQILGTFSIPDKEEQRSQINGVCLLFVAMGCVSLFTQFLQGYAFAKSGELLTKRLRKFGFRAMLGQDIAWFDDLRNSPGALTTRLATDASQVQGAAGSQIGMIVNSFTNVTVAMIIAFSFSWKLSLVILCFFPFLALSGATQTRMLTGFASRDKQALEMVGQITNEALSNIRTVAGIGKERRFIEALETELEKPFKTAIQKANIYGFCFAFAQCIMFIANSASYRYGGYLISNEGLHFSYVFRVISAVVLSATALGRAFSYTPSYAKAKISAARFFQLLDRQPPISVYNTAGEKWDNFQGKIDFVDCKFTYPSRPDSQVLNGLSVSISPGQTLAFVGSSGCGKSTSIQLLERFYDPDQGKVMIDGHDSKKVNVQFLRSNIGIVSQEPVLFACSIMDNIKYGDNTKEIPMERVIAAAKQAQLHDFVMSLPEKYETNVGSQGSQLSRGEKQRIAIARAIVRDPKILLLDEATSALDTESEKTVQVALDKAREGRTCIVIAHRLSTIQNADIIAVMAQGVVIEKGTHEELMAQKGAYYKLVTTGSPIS
Chain of OATP1B1 (Q9Y6L6 whole entry): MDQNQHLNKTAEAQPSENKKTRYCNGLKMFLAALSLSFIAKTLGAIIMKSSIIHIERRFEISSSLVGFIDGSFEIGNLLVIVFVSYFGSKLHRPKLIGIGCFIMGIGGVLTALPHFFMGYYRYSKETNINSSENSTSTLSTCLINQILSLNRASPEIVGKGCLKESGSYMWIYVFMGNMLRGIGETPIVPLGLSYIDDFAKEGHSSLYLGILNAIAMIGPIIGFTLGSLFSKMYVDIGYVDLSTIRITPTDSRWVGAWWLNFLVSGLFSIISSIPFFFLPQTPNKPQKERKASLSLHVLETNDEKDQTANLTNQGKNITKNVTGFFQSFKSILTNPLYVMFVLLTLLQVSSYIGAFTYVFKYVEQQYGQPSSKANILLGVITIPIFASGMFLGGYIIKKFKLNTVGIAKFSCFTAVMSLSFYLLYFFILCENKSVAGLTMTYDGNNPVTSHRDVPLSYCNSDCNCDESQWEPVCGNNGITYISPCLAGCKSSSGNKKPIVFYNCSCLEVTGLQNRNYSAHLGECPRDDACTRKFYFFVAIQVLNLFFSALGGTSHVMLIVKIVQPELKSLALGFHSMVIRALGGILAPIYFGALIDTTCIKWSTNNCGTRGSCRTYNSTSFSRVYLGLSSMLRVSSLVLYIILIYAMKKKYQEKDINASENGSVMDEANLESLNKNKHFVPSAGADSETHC
Chain of OAT1 (Q4U2R8 whole entry): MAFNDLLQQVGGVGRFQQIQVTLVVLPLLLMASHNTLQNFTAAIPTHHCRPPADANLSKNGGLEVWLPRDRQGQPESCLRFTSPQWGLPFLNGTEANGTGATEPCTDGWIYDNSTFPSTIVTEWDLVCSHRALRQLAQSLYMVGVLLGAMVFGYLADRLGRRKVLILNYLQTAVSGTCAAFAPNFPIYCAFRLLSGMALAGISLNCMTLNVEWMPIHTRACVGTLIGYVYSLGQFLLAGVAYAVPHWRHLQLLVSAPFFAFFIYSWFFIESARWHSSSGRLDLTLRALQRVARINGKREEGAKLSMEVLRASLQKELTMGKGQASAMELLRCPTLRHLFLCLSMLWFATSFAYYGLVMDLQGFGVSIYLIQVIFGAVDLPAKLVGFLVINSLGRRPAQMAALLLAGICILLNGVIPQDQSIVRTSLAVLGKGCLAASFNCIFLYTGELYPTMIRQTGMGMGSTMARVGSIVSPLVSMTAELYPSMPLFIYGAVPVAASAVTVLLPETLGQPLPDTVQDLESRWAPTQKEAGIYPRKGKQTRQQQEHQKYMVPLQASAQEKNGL
Chain of OCT1 (O15245 whole entry): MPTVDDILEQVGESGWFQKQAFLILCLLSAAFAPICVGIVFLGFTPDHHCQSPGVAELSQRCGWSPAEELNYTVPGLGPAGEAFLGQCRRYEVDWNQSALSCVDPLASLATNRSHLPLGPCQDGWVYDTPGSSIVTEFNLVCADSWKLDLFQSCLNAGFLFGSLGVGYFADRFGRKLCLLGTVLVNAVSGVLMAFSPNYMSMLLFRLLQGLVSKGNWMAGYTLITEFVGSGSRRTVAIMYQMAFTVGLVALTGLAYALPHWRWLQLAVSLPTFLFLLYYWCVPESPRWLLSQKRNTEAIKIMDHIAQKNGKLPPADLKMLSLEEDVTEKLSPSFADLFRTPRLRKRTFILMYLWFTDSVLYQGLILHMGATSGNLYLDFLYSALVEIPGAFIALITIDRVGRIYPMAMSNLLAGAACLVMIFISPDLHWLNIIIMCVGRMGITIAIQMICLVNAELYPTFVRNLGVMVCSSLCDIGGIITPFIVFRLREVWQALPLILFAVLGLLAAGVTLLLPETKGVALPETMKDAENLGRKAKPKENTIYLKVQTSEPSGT
Chain of OCT2 (O15244 whole entry): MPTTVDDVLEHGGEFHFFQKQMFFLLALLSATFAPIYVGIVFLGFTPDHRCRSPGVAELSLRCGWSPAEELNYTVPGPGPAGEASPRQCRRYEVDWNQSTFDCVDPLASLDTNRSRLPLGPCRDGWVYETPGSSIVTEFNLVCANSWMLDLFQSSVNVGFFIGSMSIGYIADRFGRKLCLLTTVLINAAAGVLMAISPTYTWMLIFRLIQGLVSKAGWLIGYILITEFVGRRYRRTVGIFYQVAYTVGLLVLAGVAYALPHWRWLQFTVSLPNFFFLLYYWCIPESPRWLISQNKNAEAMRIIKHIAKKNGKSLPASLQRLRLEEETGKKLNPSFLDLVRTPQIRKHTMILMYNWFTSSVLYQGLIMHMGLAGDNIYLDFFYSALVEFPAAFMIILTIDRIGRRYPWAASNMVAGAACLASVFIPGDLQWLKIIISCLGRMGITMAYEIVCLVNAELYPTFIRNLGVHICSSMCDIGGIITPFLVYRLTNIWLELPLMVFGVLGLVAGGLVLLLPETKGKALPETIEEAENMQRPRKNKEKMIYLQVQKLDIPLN
Chain of human serum albumin (P02768 25-609): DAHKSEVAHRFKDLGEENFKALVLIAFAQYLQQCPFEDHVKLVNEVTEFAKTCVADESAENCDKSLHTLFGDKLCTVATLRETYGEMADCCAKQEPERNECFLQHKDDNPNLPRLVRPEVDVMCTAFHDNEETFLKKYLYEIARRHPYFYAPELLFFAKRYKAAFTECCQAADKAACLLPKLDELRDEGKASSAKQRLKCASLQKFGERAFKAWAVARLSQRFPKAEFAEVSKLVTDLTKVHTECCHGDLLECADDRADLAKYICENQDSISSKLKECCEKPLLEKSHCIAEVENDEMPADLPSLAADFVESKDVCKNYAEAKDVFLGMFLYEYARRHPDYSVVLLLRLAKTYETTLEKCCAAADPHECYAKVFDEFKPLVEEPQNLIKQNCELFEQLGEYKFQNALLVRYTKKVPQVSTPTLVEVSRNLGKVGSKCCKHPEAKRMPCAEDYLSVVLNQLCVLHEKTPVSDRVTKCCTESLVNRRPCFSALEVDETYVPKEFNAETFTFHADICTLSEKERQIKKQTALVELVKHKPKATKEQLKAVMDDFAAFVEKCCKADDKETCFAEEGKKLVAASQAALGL
Chain of MATE1 (Q96FL8 whole entry): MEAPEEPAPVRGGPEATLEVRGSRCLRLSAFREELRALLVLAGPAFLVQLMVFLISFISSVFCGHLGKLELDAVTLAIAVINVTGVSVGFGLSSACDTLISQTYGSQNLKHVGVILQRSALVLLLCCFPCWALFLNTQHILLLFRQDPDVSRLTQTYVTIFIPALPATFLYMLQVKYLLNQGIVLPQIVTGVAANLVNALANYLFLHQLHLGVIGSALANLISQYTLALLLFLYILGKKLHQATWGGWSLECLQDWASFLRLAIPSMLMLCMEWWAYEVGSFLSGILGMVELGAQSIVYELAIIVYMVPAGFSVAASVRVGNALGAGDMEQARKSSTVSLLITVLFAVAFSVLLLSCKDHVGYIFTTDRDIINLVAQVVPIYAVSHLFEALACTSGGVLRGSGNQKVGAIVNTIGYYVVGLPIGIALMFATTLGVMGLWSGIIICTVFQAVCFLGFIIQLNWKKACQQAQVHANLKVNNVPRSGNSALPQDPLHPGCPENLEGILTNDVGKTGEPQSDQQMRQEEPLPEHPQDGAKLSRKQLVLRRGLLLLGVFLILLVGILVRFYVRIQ

Which “binding to human serum albumin” value (human serum albumin) does the source give for `C[C@@H](N)C1CCN(S(=O)(=O)c2cccc3cnccc23)CC1` [NRL-1049] here?
Its value is “bound”.

What about the “deaths or SAEs” value ([1]; Part 1 (SAD)) of the same compound?
The value was “No deaths or SAEs”.

And the “deaths or SAEs” value ([1]; Part 2)?
Its value is “No deaths or SAEs”.

What about the “TEAEs of Grade 1/mild” value ([1]; both, human, in vivo) of the same compound?
Its value is 57.1%.

And the “TEAEs of Grade 1 or Grade 2” value ([1]; both, human, in vivo)?
The value was 92.3%.

What about the “TEAEs of Grade 2/moderate” value ([1]; both, human, in vivo) of the same compound?
Its value is 42.9%.

And the “TEAEs deemed related to study treatment” value ([1]; both, human, in vivo, 8 days)?
The value was 76.9%.

What about the “TEAEs of Grade 1” value ([1]; both, human, in vivo, 8 days) of the same compound?
The value was 30.8%.

What about the “TEAEs of Grade 2” value ([1]; both, human, in vivo, 8 days) of the same compound?
The value was 61.5%.

What about the “subjects who experienced TEAEs” value ([1]; both, human, in vivo, 8 days) of the same compound?
Its value is 28.1%.

What about the “CS abnormal findings in laboratory parameters, vital signs, ECGs, physical examination, or cardiac telemetry” value ([1]; in vivo) of the same compound?
The value was “No CS abnormal findings”.

And the blood pressure ([1]; in vivo)?
Its blood pressure is “reduction of blood pressure”.

What about the tolerability ([1]; in vivo, po) of the same compound?
The tolerability was “generally well tolerated”.

What about the “deaths, SAEs, Grade 4/5 TEAEs” value ([1]; overall) of the same compound?
The value was “no deaths, SAEs, or Grade 4/5 TEAEs”.

What about the MTD ([1]; single oral dose, levels between 150 and 250 mg not explored) of the same compound?
The MTD was 150 mg.

What about the pIC50 (OCT1) of the same compound?
The pIC50 was 4.18 to 5.07.

What about the pIC50 (OATP1B1) of the same compound?
The pIC50 was less than 4.00.

And the effect on transporter [2]?
The effect on transporter was “no effect”.

And the pIC50 (OCT2)?
The pIC50 was 4.18 to 5.07.

And the effect on transporter [3]?
The effect on transporter was “no effect”.

What about the pIC50 (OATP1B3) of the same compound?
Its pIC50 is less than 4.00.

And the pIC50 (MATE1)?
The pIC50 was 4.18 to 5.07.

What about the pIC50 [4] of the same compound?
The pIC50 was less than 4.00.

And the pIC50 (OAT3)?
The pIC50 was less than 4.00.

And the effect on transporter (P-gp (MDCK2 cells))?
Its effect on transporter is “no effect”.

What about the pIC50 (OAT1) of the same compound?
The pIC50 was 4.18 to 5.07.

What about the “induction of CYP3A4, maximal effective concentration [Emax]” value (CYP3A4) of the same compound?
The value was 2.19 fold.

What about the pEC50 (CYP3A4; read-out: induction of CYP3A4, half-maximal effective concentration [EC50]) of the same compound?
The pEC50 was 4.38.

What about the “induction of CYP1A2” value (CYP1A2) of the same compound?
Its value is 3 fold.

And the “binding to human alpha1-acid glycoprotein” value [5]?
The value was “bound”.
